Values of other authors, collected in publication PMC12308805, “Ultrahigh-Throughput Virtual Screening Strategies against PPI Targets: A Case Study of STAT Inhibitors” (Journal of Chemical Information and Modeling, 2025).

Tested on: STAT5b
Design: method as in literature
Conditions: training set for retrospective virtual screening with 6MBW; known actives for STAT5b found in the literature; ref literature; cited from earlier work

SMILES | Type (Active / decoy)
COC(=O)c1cccc(-c2ccc(-c3ccc(CN(C(=O)CN(C)S(=O)(=O)c4ccc(C)cc4)c4ccc(C(=O)O)c(O)c4)cc3)cc2)c1 [BP-1-075, COC(=O)c1cccc(-c2ccc(-c3ccc(CN(C(=O)CN(C)S(=O)(=O)c4ccc(C)cc4)c4ccc(C(=O)O)c(O)c4)cc3)cc2)c1] | Active
CC(C)(C)c1cc(CN(C(=O)CN(Cc2ccc(Cl)cc2)S(=O)(=O)c2c(F)c(F)c(F)c(F)c2F)c2ccc(C(=O)O)cc2)cc(C(C)(C)C)c1 [AC-4-130, CC(C)(C)c1cc(CN(C(=O)CN(Cc2ccc(Cl)cc2)S(=O)(=O)c2c(F)c(F)c(F)c(F)c2F)c2ccc(C(=O)O)cc2)cc(C(C)(C)C)c1] | Active
